US8952024B2, “Herbicidal pyrimidone derivatives” (E I du Pont de Nemours and Company, priority 2009, dated 2015)

Columns and labels:
Type in all cases: in vivo
[1] = system: morningglory (Ipomoea spp.); assay: Test A pre-/postemergence plant response
Procedure, shortened: (§1)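 Injury was scored visually after roughly ten days against untreated controls, 0 = no effect, 100 = complete control. Test chemicals in a surfactant-containing non-phytotoxic solvent were sprayed either onto soil preemergence or onto one- to two-leaf, 2–10 cm plants postemergence.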

[2] = system: velvetleaf (Abutilon theophrasti); assay: Test A pre-/postemergence plant response
Procedure, shortened: as §1

corn (Zea mays) = assay: Test A pre-/postemergence plant response; conditions: for Corn plant response rating: visual injury, 0 to 100 scale (0 no effect, 100 complete control), approx. ten days
Procedure, shortened: as §1

[3] = system: giant foxtail (Setaria faberii); assay: Test A pre-/postemergence plant response
Procedure, shortened: as §1

[4] = system: wheat (Triticum aestivum); assay: Test A pre-/postemergence plant response
Procedure, shortened: as §1

[5] = system: pigweed (Amaranthus retroflexus); assay: Test A pre-/postemergence plant response
Procedure, shortened: as §1

[6] = system: large crabgrass (Digitaria sanguinalis); assay: Test A pre-/postemergence plant response; conditions: for Crabgrass, Large plant response rating: visual injury, 0 to 100 scale (0 no effect, 100 complete control), approx. ten days
Procedure, shortened: as §1

[7] = system: barnyardgrass (Echinochloa crus-galli); assay: Test A pre-/postemergence plant response; conditions: for Barnyardgrass plant response rating: visual injury, 0 to 100 scale (0 no effect, 100 complete control), approx. ten days
Procedure, shortened: as §1

rice (Oryza sativa) = assay: Test B flooded paddy test; conditions: for Plant response rating, Flood, Rice: 250 g ai/ha, flooded paddy test, visual rating on 0 to 100 scale (0 no effect, 100 complete control) after 13 to 15 days; for Plant response rating, Rice: Flood (flooded paddy test), 13 to 15 days; for Rice plant response rating: Flood, 31 g ai/ha, scale 0 to 100 (0 no effect, 100 complete control)
Procedure, shortened: (§2)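 Flooded-pot test: water raised to 3 cm above soil when treating, compound put in the water, level unchanged thereafter. Plants were at 2 leaves. Readout after 13 to 15 days, visual, relative to controls; 0 signifies no effect and 100 complete control.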

[8] = system: umbrella sedge (Cyperus difformis); assay: Test B flooded paddy test; conditions: for Plant response rating, Flood, Sedge, Umbrella: 250 g ai/ha, flooded paddy test, visual rating on 0 to 100 scale (0 no effect, 100 complete control) after 13 to 15 days; for Plant response rating, Sedge, Umbrella: Flood (flooded paddy test), 13 to 15 days; for Sedge, Umbrella plant response rating: Flood, 31 g ai/ha, scale 0 to 100 (0 no effect, 100 complete control)
Procedure, shortened: as §2

[9] = system: barnyardgrass (Echinochloa crus-galli); assay: Test B flooded paddy test; conditions: for Plant response rating, Flood, Barnyardgrass: 250 g ai/ha, flooded paddy test, visual rating on 0 to 100 scale (0 no effect, 100 complete control) after 13 to 15 days; for Plant response rating, Barnyardgrass: Flood (flooded paddy test), 13 to 15 days; for Barnyardgrass plant response rating: Flood, 31 g ai/ha, scale 0 to 100 (0 no effect, 100 complete control)
Procedure, shortened: as §2

[10] = system: ducksalad (Heteranthera limosa); assay: Test B flooded paddy test; conditions: for Plant response rating, Flood, Ducksalad: 250 g ai/ha, flooded paddy test, visual rating on 0 to 100 scale (0 no effect, 100 complete control) after 13 to 15 days; for Plant response rating, Ducksalad: Flood (flooded paddy test), 13 to 15 days; for Ducksalad plant response rating: Flood, 31 g ai/ha, scale 0 to 100 (0 no effect, 100 complete control)
Procedure, shortened: as §2

[11] = Postemergence, 125 g ai/ha, visual injury, 0 to 100 scale (0 no effect, 100 complete control), approx. ten days
[12] = Postemergence, 500 g ai/ha, visual injury, 0 to 100 scale (0 no effect, 100 complete control), approx. ten days
[13] = Preemergence, 125 g ai/ha, 0 to 100 scale where 0 is no effect and 100 is complete control, approximately ten days
[14] = Preemergence, 500 g ai/ha, 0 to 100 scale, 0 = no effect, 100 = complete control
[15] = Postemergence, 125 g ai/ha, 0 to 100 scale where 0 is no effect and 100 is complete control
[16] = 62 g ai/ha, scale of 0 to 100 where 0 is no effect and 100 is complete control
[17] = 125 g ai/ha, scale 0 to 100, 0 is no effect, 100 is complete control

Structure (SMILES): O=C(C1=C(O)C2CCC(C2)C1=O)c1cnc(-c2ccccc2)n(CC2CCCO2)c1=O (centres unmarked) [Compound 250]
- Plant response rating, Morningglory [1, 11]: 100
- Morningglory plant response rating [1, 12]: 100
- Plant response rating, Morningglory [1, 13]: 10
- Plant response rating, Morningglory [1, 14]: 60
- Plant response rating, Velvetleaf [2, 11]: 100
- Velvetleaf plant response rating [2, 12]: 100
- Plant response rating, Velvetleaf [2, 13]: 50
- Plant response rating, Velvetleaf [2, 14]: 90
- Plant response rating, Corn (corn (Zea mays); [15]): 0
- Corn plant response rating (corn (Zea mays); Postemergence, 500 g ai/ha): 70
- Plant response rating, Corn (corn (Zea mays); [13]): 0
- Plant response rating, Corn (corn (Zea mays); [14]): 0
- Plant response rating, Foxtail, Giant [3, 11]: 90
- Foxtail, Giant plant response rating [3, 12]: 100
- Plant response rating, Foxtail, Giant [3, 13]: 30
- Plant response rating, Foxtail, Giant [3, 14]: 60
- Plant response rating, Wheat [4, 11]: 0
- Wheat plant response rating [4, 12]: 20
- Plant response rating, Wheat [4, 13]: 0
- Plant response rating, Wheat [4, 14]: 10
- Plant response rating, Pigweed [5, 11]: 100
- Pigweed plant response rating [5, 12]: 100
- Plant response rating, Pigweed [5, 13]: 60
- Plant response rating, Pigweed [5, 14]: 100
- Plant response rating, Crabgrass, Large [6, 15]: 60
- Crabgrass, Large plant response rating ([6]; Postemergence, 500 g ai/ha): 100
- Plant response rating, Crabgrass, Large [6, 13]: 30
- Plant response rating, Crabgrass, Large [6, 14]: 90
- Plant response rating, Barnyardgrass [7, 15]: 50
- Barnyardgrass plant response rating ([7]; Postemergence, 500 g ai/ha): 100
- Plant response rating, Barnyardgrass [7, 13]: 0
- Plant response rating, Barnyardgrass [7, 14]: 40
- Plant response rating, Flood, Rice (rice (Oryza sativa)): 0
- Plant response rating, Rice (rice (Oryza sativa); [16]): 0
- Plant response rating, Rice (rice (Oryza sativa); [17]): 0
- Rice plant response rating (rice (Oryza sativa)): 0
- Plant response rating, Flood, Sedge, Umbrella [8]: 70
- Plant response rating, Sedge, Umbrella [8, 16]: 65
- Plant response rating, Sedge, Umbrella [8, 17]: 65
- Sedge, Umbrella plant response rating [8]: 0
- Plant response rating, Flood, Barnyardgrass [9]: 10
- Plant response rating, Barnyardgrass [9, 16]: 0
- Plant response rating, Barnyardgrass [9, 17]: 10
- Barnyardgrass plant response rating [9]: 0
- Plant response rating, Flood, Ducksalad [10]: 75
- Plant response rating, Ducksalad [10, 16]: 30
- Plant response rating, Ducksalad [10, 17]: 70
- Ducksalad plant response rating [10]: 30

Structure (SMILES): C#Cc1ccc(-c2ncc(C(=O)C3=C(O)C4CCC(C4)C3=O)c(=O)n2C2CCCCC2)cc1 (centres unmarked) [Compound 254]
- Plant response rating, Morningglory [1, 11]: 20
- Morningglory plant response rating [1, 12]: 50
- Plant response rating, Morningglory [1, 13]: 0
- Plant response rating, Velvetleaf [2, 11]: 50
- Velvetleaf plant response rating [2, 12]: 90
- Plant response rating, Velvetleaf [2, 13]: 0
- Plant response rating, Velvetleaf [2, 14]: 20
- Plant response rating, Corn (corn (Zea mays); [15]): 0
- Corn plant response rating (corn (Zea mays); Postemergence, 500 g ai/ha): 10
- Plant response rating, Corn (corn (Zea mays); [13]): 0
- Plant response rating, Corn (corn (Zea mays); [14]): 0
- Plant response rating, Foxtail, Giant [3, 11]: 10
- Foxtail, Giant plant response rating [3, 12]: 50
- Plant response rating, Foxtail, Giant [3, 13]: 0
- Plant response rating, Foxtail, Giant [3, 14]: 30
- Plant response rating, Wheat [4, 11]: 0
- Wheat plant response rating [4, 12]: 0
- Plant response rating, Wheat [4, 13]: 0
- Plant response rating, Wheat [4, 14]: 0
- Plant response rating, Pigweed [5, 11]: 60
- Pigweed plant response rating [5, 12]: 90
- Plant response rating, Pigweed [5, 13]: 0
- Plant response rating, Pigweed [5, 14]: 0
- Plant response rating, Crabgrass, Large [6, 15]: 20
- Crabgrass, Large plant response rating ([6]; Postemergence, 500 g ai/ha): 70
- Plant response rating, Crabgrass, Large [6, 13]: 0
- Plant response rating, Crabgrass, Large [6, 14]: 50
- Plant response rating, Barnyardgrass [7, 15]: 0
- Barnyardgrass plant response rating ([7]; Postemergence, 500 g ai/ha): 90
- Plant response rating, Barnyardgrass [7, 13]: 0
- Plant response rating, Barnyardgrass [7, 14]: 10
- Plant response rating, Flood, Rice (rice (Oryza sativa)): 0
- Plant response rating, Rice (rice (Oryza sativa); [16]): 0
- Plant response rating, Rice (rice (Oryza sativa); [17]): 0
- Rice plant response rating (rice (Oryza sativa)): 0
- Plant response rating, Flood, Sedge, Umbrella [8]: 80
- Plant response rating, Sedge, Umbrella [8, 16]: 50
- Plant response rating, Sedge, Umbrella [8, 17]: 75
- Sedge, Umbrella plant response rating [8]: 30
- Plant response rating, Flood, Barnyardgrass [9]: 15
- Plant response rating, Barnyardgrass [9, 16]: 0
- Plant response rating, Barnyardgrass [9, 17]: 10
- Barnyardgrass plant response rating [9]: 0
- Plant response rating, Flood, Ducksalad [10]: 100
- Plant response rating, Ducksalad [10, 16]: 85
- Plant response rating, Ducksalad [10, 17]: 85
- Ducksalad plant response rating [10]: 45
